Several values for one entry are separate records, joined by “and”; a condition that tells them apart may be missing. Identical values can stand only once. Activity calls are given as the source filed them.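 How the source made its calls: active means fitted dose curve reaches 40% lysis signal rise at or below the highest valid concentration tested for that sample; inconclusive means flat fit between 30% and 70%, or poor curve fit; inactive means signal falls, stays flat within 30%, or no crossing.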 Bounds are passed on as bounds.

For this experiment, the system named is C. neoformans lysis, adenylate kinase release luminescence, 4 h. Nature of the experiment: C. neoformans lysis by adenylate kinase leakage – AK release luminescence, cherry-picks, dose response (AID 687000).
On to `COC(=O)C1=C(C)N(C)C(=S)NC1c1ccccc1` (stereo not drawn), for which the AC40 was > 26 µM (inactive). Then `CCCC(=O)Nc1ccc2c(c1)C(=O)N(C)C[C@H](OC)[C@@H](C)CN(C(=O)c1cccnc1)[C@H](C)CO2`, with 13.7 µM; and `C[C@H](CO)N1C[C@H](C)[C@H](CN(C)C(=O)Nc2cccc3ccccc23)Oc2ccc(NC(=O)Cc3ccccc3)cc2CC1=O`, with > 15 µM (inactive); and `S=C(Nc1ccc(Cl)cc1Cl)Nc1ccccc1Oc1ccccc1`, with 3.3 µM. As to `CCC(=O)N(C)C[C@@H]1Oc2cc(C#CC(C)(C)O)ccc2S(=O)(=O)N([C@H](C)CO)C[C@H]1C`, the AC40 is > 15 µM (inactive). Then `Cc1ccc(C(=O)NC(=S)Nc2ccccc2N2CCCC2)cc1[N+](=O)[O-]`, with > 15 µM (inactive); and `COC(=O)C1=C(C)N(Cc2ccc(Br)cc2)C(=S)NC1c1ccccc1` (stereo not drawn), with 2.1 µM.

With `COC(=O)C1=C(C)N(Cc2ccc(F)cc2)C(=S)NC1c1ccccc1` (stereo not drawn), the AC40 was 2.68 µM. On to `C[C@H](CO)N1C[C@H](C)[C@@H](CN(C)CC2CCOCC2)Oc2ncc(C#Cc3ccc(F)cc3)cc2C1=O`, for which the AC40 was > 15 µM (inactive). The result for `Cc1ccccc1NC(=S)NC(=O)CCc1ccccc1` reads 4.93 µM.

Regarding `Cc1cccc2sc(N3CCN(C(=O)c4cccs4)CC3)nc12`, the AC40 was > 15 µM (inactive).

Regarding `O=C(NC(=S)Nc1ccccc1N1CCOCC1)c1ccc(Br)cc1`, the AC40 is > 15 µM (inactive). On to `COC(=O)C1=C(C)N(CC(C)C)C(=S)NC1c1ccc(Cl)cc1` (stereo not drawn), for which the AC40 is 2.36 µM and 0.971 µM. Then `O=C(COC(=O)CCC1CCCC1)Nc1nc2c(F)c(F)c(F)cc2s1`, with > 15 µM (inactive); and `Cc1noc(C)c1NC(=O)Nc1ccc2c(c1)C(=O)N([C@@H](C)CO)C[C@H](C)[C@H](CN(C)CC1CCCCC1)O2`, with > 15 µM (inactive). The result for `O=C(NC(=S)NCC1COc2ccccc2O1)c1ccc(Cl)cc1` (stereo not drawn) reads 3.44 µM. Then `Cc1ccc(CSc2ncnc3c2cnn3-c2ccc(C)cc2)cc1`, with > 15 µM (inactive); and `COc1ccc(CNC(=S)NCc2ccc(OC(C)C)cc2)cc1`, with 8.39 µM; and `O=C(NCCN1CCCCC1)[C@H]1N[C@H]2c3ccc(-c4ccncc4)c(=O)n3C[C@H]2[C@@H]1CO`, with 12.7 µM. For the compound `CCOC(=O)NC(=S)Nc1ccc(C(C)(C)C)cc1`, the AC40 is 1.21 µM. Then `COc1ccccc1C#Cc1ccc2c(c1)O[C@H](CN(C)C(C)=O)[C@H](C)CN([C@@H](C)CO)S2(=O)=O`, with > 15 µM (inactive); and `CCCCNC(=S)N/N=C/c1ccc(C#N)cc1`, with 4.58 µM. Then `Cc1ccc2nc(C)c3c(c2c1)OC(C(C)(Cl)Br)C3` (stereo not drawn), with > 15 µM (inactive). Consider `S=C(NCc1ccccc1)NCC1COc2ccccc2O1` (stereo not drawn), for which the AC40 is 9.32 µM. Then `C[C@H]1CN([C@@H](C)CO)C(=O)Cc2cc(NS(C)(=O)=O)ccc2O[C@@H]1CN(C)Cc1ccc(Cl)c(Cl)c1`, with > 15 µM (inactive); and `O=C(N[C@H]1CC[C@H](CCn2cc(-c3ccccn3)nn2)O[C@H]1CO)c1ccc(F)cc1`, with > 15 µM (inactive); and `CCOC(=O)c1c(-c2ccc(-c3ccccc3)cc2)csc1NC(=O)CNCCN(C)C`, with 1.62 µM. With `CCCC(=O)N1CCC1(C)C(=O)Nc1ccc(C)cc1` (stereo not drawn), the AC40 is > 28.5 µM (inactive). With `C[C@H]1CN([C@@H](C)CO)C(=O)c2cc(-c3ccc(F)cc3)cnc2O[C@@H]1CN(C)CC1CCCCC1`, the AC40 was > 15 µM (inactive). Then `COc1cc(OC)c(N(C)C(=O)c2cn(C)c(=O)c3cc(OC)c(OC)cc23)cc1Cl`, with > 15 µM (inactive). The result for `S=C(NCCCc1ccccc1)Nc1ccccc1` reads 2.56 µM; that for `COc1ccc(C(=O)NC(=S)Nc2cccc(Cl)c2N2CCOCC2)cc1[N+](=O)[O-]`, > 15 µM (inactive). Then `O=C(NC(=S)Nc1cc(Cl)ccc1N1CCOCC1)c1ccccc1[N+](=O)[O-]`, with 13.6 µM; and `Cc1cc(C(=O)NC(=S)Nc2ccccc2N2CCOCC2)ccc1[N+](=O)[O-]`, with 4.95 µM.

Consider `CCN(Cc1ccccc1)C(=O)COc1ccccc1`, for which the AC40 is > 15 µM (inactive). On to `Cc1cccc(C)c1NC(=O)CN(C)C(=O)C1CC1C` (stereo not drawn), for which the AC40 is > 15 µM (inactive). For `COc1cccc(S(=O)(=O)N(C)C[C@@H]2OCc3ccccc3-c3ccccc3C(=O)N([C@@H](C)CO)C[C@@H]2C)c1`, the AC40 is > 15 µM (inactive). Then `Cc1ccc(S(=O)(=O)N[C@H]2C=C[C@@H](CC(=O)N3CCC(Cc4ccccc4)CC3)O[C@H]2CO)cc1`, with > 15 µM (inactive); and `CC[C@H](C)[C@@H]1NC(=O)CNC(=O)c2csc(n2)[C@H](C(C)(C)O)OC(=O)C(C)(C)[C@H](CCCC(C)(Cl)Cl)OC(=O)c2csc1n2`, with 2.66 µM. Then `O=C(Cc1ccccc1)N[C@H]1C=C[C@@H](CC(=O)N2CCOCC2)O[C@@H]1CO`, with 4.91 µM; and `COc1ccc(C(=O)NC(=S)Nc2ccccc2N2CCCCC2)cc1[N+](=O)[O-]`, with 3.29 µM; and `COc1cccc(NC(=S)NC(=O)Cc2ccc(Cl)cc2)c1`, with 1.03 µM. With `C[C@@H]1CN([C@@H](C)CO)C(=O)Cc2cc(NC(=O)c3ccncc3)ccc2O[C@H]1CN(C)Cc1ccncc1`, the AC40 is > 15 µM (inactive).

These data come from PubChem BioAssay AID687000 (Broad Institute, 2013).
